One experiment addresses human factor Xa (Homo sapiens, UniProt P00742). Description: Simultaneous chromogenic determination of factor Xa inhibition in enriched normal plasma (Z-D-Leu-Gly-Arg-ANBA-methylamide, 405 nm). In kind it is biochemical. On the procedure: (§1) The following components were mixed to form one reaction: • 10 μl sample • 10 μl pool of normal human plasma • 40 μl substrate reagent (4 mM Z-D-Leu-Gly-Arg-ANBA-methylamide, 0.8 mM Tos-Gly-Pro-Arg-Basic Blue 49 in mannitol buffer, pH 4.0) • 100 μl factor Xa reagent (0.75 U/ml human factor Xa in 4.5 g/l TRIS, 9 g/l NaCl, 0.56 g/l EDTA, pH 8.0) • 100 μl thrombin reagent (5 U/ml bovine thrombin in 1.2 g/l TRIS, pH 8.2)
(§2) The sample used was normal human plasma. Factor Xa cleaves ANBA from the factor Xa-specific peptide substrate Z-D-Leu-Gly-Arg-ANBA-methylamide, increasing over time the optical density in the reaction at a wavelength of 405 nm. At the same time, thrombin cleaves Basic Blue 49 from the thrombin-specific peptide substrate Tos-Gly-Pro-Arg-Basic Blue 49, increasing over time the optical density in the reaction at a wavelength of 575 nm.
(§3) The measurements of the optical densities of the reaction at 405 nm and 575 nm and the evaluation of the reaction kinetics were carried out simultaneously in a fully automated Sysmex® CS-2000i coagulation analyzer. To measure the optical densities, the reaction was irradiated alternately with light of the aforementioned wavelengths, and the absorbance of the light, caused by the coloration of the reaction, was determined as a function of wavelength and time.
(§4) The increases in the reaction kinetics for normal plasma without inhibitors were defined as 100% of the respective enzyme activity.

A further experiment concerns the target bovine thrombin (Bos taurus, UniProt P00735). Description: Simultaneous chromogenic determination of thrombin inhibition in enriched normal plasma (Tos-Gly-Pro-Arg-Basic Blue 49, 575 nm). Format: biochemical. The method, then:
as §1, §2, §3
Normal plasma was enriched with various concentrations of rivaroxaban, a specific factor Xa inhibitor, and/or of argatroban, a specific thrombin inhibitor, and used as a sample in a method as per example 1.
as §4

The term inhibition denotes the relative decrease from the control value, in per cent.

SMILES strings stand for the structures.

Sequence of human factor Xa (P00742 235-488 limits assumed): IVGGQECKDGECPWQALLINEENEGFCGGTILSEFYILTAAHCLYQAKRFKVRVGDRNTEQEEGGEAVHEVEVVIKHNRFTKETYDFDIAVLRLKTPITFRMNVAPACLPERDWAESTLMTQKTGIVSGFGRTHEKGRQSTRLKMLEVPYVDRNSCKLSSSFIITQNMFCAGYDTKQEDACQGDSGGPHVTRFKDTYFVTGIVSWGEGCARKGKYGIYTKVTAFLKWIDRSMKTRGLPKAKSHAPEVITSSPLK
Sequence of human factor Xa (P00742 41-179 partner limits assumed): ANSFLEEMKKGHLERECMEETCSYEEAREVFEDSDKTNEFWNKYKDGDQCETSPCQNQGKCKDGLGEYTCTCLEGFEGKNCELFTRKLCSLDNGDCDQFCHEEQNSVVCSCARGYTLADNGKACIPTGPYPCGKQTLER

Turning to `CC1CNc2c(cccc2S(=O)(=O)N[C@@H](CCCNC(=N)N)C(=O)N2CC[C@@H](C)C[C@@H]2C(=O)O)C1` (stereo partly drawn) [Argatroban, argatroban], the inhibition at 0.375 µg/mL on human factor Xa (normal plasma enriched with argatroban 375 ng/ml, rivaroxaban 0 ng/ml, read-out: F Xa inhibition [%]) is 0%; at bovine thrombin (normal plasma enriched with argatroban 375 ng/ml, rivaroxaban 0 ng/ml), 18%. The inhibition at 0.75 µg/mL at human factor Xa (normal plasma enriched with argatroban 750 ng/ml, rivaroxaban 0 ng/ml, read-out: F Xa inhibition [%]) was 0%; on bovine thrombin (normal plasma enriched with argatroban 750 ng/ml, rivaroxaban 0 ng/ml) it was 31%. On bovine thrombin (samples having an increased argatroban concentration, irrespective of the rivaroxaban concentration), the “inhibition of thrombin activity, in words (FIG. 2)” value is recorded as “increased thrombin inhibition”.
Turning to `O=C(NC[C@H]1CN(c2ccc(N3CCOCC3=O)cc2)C(=O)O1)c1ccc(Cl)s1` [Rivaroxaban, rivaroxaban], at human factor Xa (normal plasma enriched with rivaroxaban 125 ng/ml, argatroban 0 ng/ml, read-out: F Xa inhibition [%]), the inhibition at 0.125 µg/mL was found to be 42%. Besides, the inhibition at 0.25 µg/mL at human factor Xa (normal plasma enriched with rivaroxaban 250 ng/ml, argatroban 0 ng/ml, read-out: F Xa inhibition [%]) is 65%; on bovine thrombin (normal plasma enriched with rivaroxaban 250 ng/ml, argatroban 0 ng/ml), 5%. The “inhibition of factor Xa activity, in words (FIG. 1)” value against human factor Xa (samples having an increased rivaroxaban concentration, irrespective of the argatroban concentration) was “increased factor Xa inhibition”.
